Assay results: patent US9006232B2, “Pyrimidone derivatives” (Mitsubishi Tanabe Pharma Corporation, priority 2009, dated 2015)

What follows are molecules tested against bovine cerebral TPK1 (Bos taurus, UniProt A0A059UE90) (assay: Inhibitory activity against P-GS1 phosphorylation by bovine cerebral TPK1). Details: P-GS1 phosphorylation, 41.7 μM [γ-32P] ATP, 25° C., 2 hours; read-out: IC50.
Chain of bovine cerebral TPK1 (A0A059UE90 1-419): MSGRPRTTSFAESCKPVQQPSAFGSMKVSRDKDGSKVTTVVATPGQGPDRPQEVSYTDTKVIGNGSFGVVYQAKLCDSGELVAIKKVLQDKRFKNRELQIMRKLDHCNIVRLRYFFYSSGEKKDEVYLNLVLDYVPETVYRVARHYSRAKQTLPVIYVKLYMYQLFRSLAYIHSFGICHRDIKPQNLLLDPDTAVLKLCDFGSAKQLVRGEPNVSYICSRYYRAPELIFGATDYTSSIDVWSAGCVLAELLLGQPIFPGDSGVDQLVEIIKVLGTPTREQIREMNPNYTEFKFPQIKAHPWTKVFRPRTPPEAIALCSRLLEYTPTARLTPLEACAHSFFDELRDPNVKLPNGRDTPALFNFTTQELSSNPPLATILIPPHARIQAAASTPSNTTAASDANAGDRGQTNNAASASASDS
Type: biochemical
Experimental: Inhibitory Activity of the Medicament of the Present Invention Against P-GS1 Phosphorylation by Bovine Cerebral TPK1 […] The phosphorylation was started by adding ATP, and the reaction was conducted at 25° C. for 2 hours, and then stopped by adding 21% perchloric acid on ice cooling. The reaction mixture was centrifuged at 12,000 rpm for 5 minutes and adsorbed on P81 paper (Whatmann), and then the paper was washed four times with 75 mM phosphoric acid, three times with water and once with acetone. The paper was dried, and the residual radioactivity was measured using a liquid scintillation counter.
Work on `CN(C)Cc1ccc(N2CCC(Oc3nc(-c4ccncn4)cc(=O)n3C)CC2)cc1` [1.220, 2-[1-(4-Dimethylaminomethyl-phenyl)piperidin-4-yloxy]-1-methyl-1H-[4,4′]bipyrimidinyl-6-one] yielded an IC50 of 21.2 nM.
`Cn1c(OC2CCN(c3ccc(CN4CCCC4)cc3)CC2)nc(-c2ccncn2)cc1=O` [1.217, 1-Methyl-2-[1-(4-pyrrolidin-1-ylmethyl-phenyl)piperidin-4-yloxy]-1H-[4,4′]bipyrimidinyl-6-one] showed an IC50 of 12 nM.
With `Cn1c(OC2CCCN(c3cccc(F)c3)C2)nc(-c2ccncn2)cc1=O` (stereo not shown) [1.104, 2-[1-(3-Fluoro-phenyl)piperidin-3-yloxy]-1-methyl-1H-[4,4′] bipyrimidinyl-6-one] the IC50 was 8.9 nM.
With `Cn1c(OC[C@H]2CCCN2C(=O)Oc2ccccc2)nc(-c2ccncn2)cc1=O` [Compound No. 2.201, Phenyl (2R)-2-(1-methyl-6-oxo-1,6-dihydro-[4,4′]bipyrimidinyl-2-yloxymethyl)pyrrolidine-1-carboxylate] the IC50 was 56.4 nM.
`CN(C)Cc1ccccc1N1CCC(Oc2nc(-c3ccncn3)cc(=O)n2C)CC1` [1.305, 2-[1-(2-Dimethylaminomethyl-phenyl)piperidin-4-yloxy]-1-methyl-1H-[4,4′]bipyrimidinyl-6-one] was tested, and the IC50 was 58.6 nM.
`Cn1c(OC[C@@H]2CCN(c3ccccc3)C2)nc(-c2ccncc2F)cc1=O` [Compound No. 2.211, 6-(3-Fluoro-pyridin-4-yl)-3-methyl-2-[(3R)-1-phenyl-pyrrolidin-3-ylmethoxy]-3H-pyrimidin-4-one] gave an IC50 of 658 nM.
`Cn1c(OCCc2ccccc2)nc(-c2ccncc2)cc1=O` [2.002, 3-Methyl-2-phenethyloxy-6-pyridin-4-yl-3H-pyrimidin-4-one] gave an IC50 of 200 nM.
`Cn1c(OC[C@H]2CCN(c3ccsc3)C2)nc(-c2ccncc2F)cc1=O` [Compound No. 2.206, 6-(3-Fluoro-pyridin-4-yl)-3-methyl-2-[(3S)-1-(thiophen-3-yl)pyrrolidin-3-ylmethoxy]-3H-pyrimidin-4-one] was tested, and the IC50 was 73.2 nM.
`Cn1c(OC2CCN(c3ccc(CN4CCNCC4)cc3)CC2)nc(-c2ccncn2)cc1=O` [Compound No. 1.202, 1-Methyl-2-[1-(4-piperazin-1-ylmethyl-phenyl)piperidin-4-yloxy]-1H-[4,4′]bipyrimidinyl-6-one] gave an IC50 of 13 nM.
`Cn1c(OC2CCN(C(=O)Oc3ccccc3)CC2)nc(-c2ccncn2)cc1=O` [1.112, Phenyl 4-(1-methyl-6-oxo-1,6-dihydro-[4,4′]bipyrimidinyl-2-yloxy) piperidine-1-carboxylate] showed an IC50 of 108 nM.
With `Cn1c(OC2CCN(c3ccc(CN4CCCCC4)cc3)CC2)nc(-c2ccncn2)cc1=O` [1.214, 1-Methyl-2-[1-(4-piperidin-1-ylmethyl-phenyl)piperidin-4-yloxy]-1H-[4,4′]bipyrimidinyl-6-one] the IC50 was 16.1 nM.
`CN(C)Cc1ccc(C(=O)N2CCC(Oc3nc(-c4ccncn4)cc(=O)n3C)CC2)cc1` [Compound No. 1.601, 2-[1-(4-Dimethylaminomethyl-benzoyl)piperidin-4-yloxy]-1-methyl-1H-[4,4′]bipyrimidinyl-6-one] showed an IC50 of 39.8 nM.
With `Cn1c(OC[C@@H]2CCCN2c2ccc(F)cc2)nc(-c2ccncn2)cc1=O` [2.204, 2-[(2S)-1-(4-Fluoro-phenyl)pyrrolidin-2-ylmethoxy]-1-methyl-1H-[4,4′]bipyrimidinyl-6-one] the IC50 was 37.6 nM.
`Cn1c(OC[C@@H]2CCN(c3ccsc3)C2)nc(-c2ccncc2F)cc1=O` [Compound No. 2.208, 6-(3-Fluoro-pyridin-4-yl)-3-methyl-2-[(3R)-1-(thiophen-3-yl)pyrrolidin-3-ylmethoxy]-3H-pyrimidin-4-one] was tested, and the IC50 was 108 nM.
For `Cn1c(OC2CCN(c3ccc(CN4CCCCC4)cc3)CC2)nc(-c2ccncc2F)cc1=O` [1.216, 6-(3-Fluoro-pyridin-4-yl)-3-methyl-2-[1-(4-piperidin-1-ylmethyl-phenyl)piperidin-4-yloxy]-3H-pyrimidin-4-one], the IC50 was 10.9 nM.
Molecule `Cn1c(OC2CCCN(c3ccc(C#N)cc3)CC2)nc(-c2ccncn2)cc1=O` (stereo not shown) [Compound No. 1.701, 4-[4-(1-Methyl-6-oxo-1,6-dihydro-[4,4′]bipyrimidinyl-2-yloxy)azepan-1-yl]benzonitrile] has an IC50 of 30.3 nM.
